From US20200030355A1, “COMBINATION THERAPY FOR TREATING CANCER” (Epizyme, Inc., priority 2014, published 2020)
Entries after “also recorded” stand apart in the source; their conditions may differ.

Key:
MOLM-13 (MLL-AF9) [1] = assay: Combination proliferation study with Compound A2 (ATP/CellTiter-Glo, Chou-Talalay combination index); assay type: cell-based, human
Outline: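 Viability by CellTiter-Glo ATP luminescence; Fa relative to DMSO controls. Combination index by Chou-Talalay (CI<1 synergy, =1 additive, >1 antagonism).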

MV4-11 (MLL-AF4) = assay: as above; assay type: cell-based, human; conditions: for Combination with Compound A2, MV4-11 (MLL-AF4): 7 Day Cotreatment Model, Table 4; for Combination of Compound A2 and anti-cancer agent, MV4-11: 7 Day Cotreatment; for Combination with Compound A2, MV4-111 MLL-AF4: Table 2, Example 3
Experimental: The acute myelogenous leukemia cell lines MV4-11 (MLL-AF4) and MOLM-13 (MLL-AF9) were obtained from American Type Culture Collection (ATCC; Rockville, Md.) and Deutsche Sammlung von Mikroorganismen and Zellkulturen (DSMZ; Braunschweig, Germany) respectively.
Studies were performed using MLL-rearranged cell lines in vitro to evaluate the anti-proliferative effect of a combination of two agents together on cell growth. Initial proliferation studies were performed to determine the IC50 of a given compound in each cell line. The cell counts were measured by ATP quantitation using the Promega Cell Titer Glo kit and luminescence values corresponded to the amount of ATP in a given well.
Compounds were evaluated for synergy in the co-treatment phase by testing the compounds in a concentration range which was bracketed around their IC50 values. The compounds were plated to a 96 well plate in a matrix format (FIG. 3) which includes increasing concentrations of each drug in the combination in a constant ratio, in addition to the effect of each compound alone in the study. Cells were seeded and grown in the log-linear phase for 3 or 7 days in the co-treatment phase. Minimum inhibition (DMSO alone) controls were used in each plate to calculate fraction affected (Fa) of a test well. DMSO concentration was kept at 0.1% v/v.
The drug combination analysis was performed utilizing the Chou-Talalay method Synergy was determined using the software package Calcusyn by Biosoft. The combination index (CI) is a quantitative term used to describe the level of synergy or antagonism in a given test system. A combination index less than one indicates synergy, and a CI greater than one indicates antagonism. Further, strong synergism is achieved when the CI value falls below 0.3.
(§1) Graphs representing values of combination index (CI) versus Fractional effect (Fa) known as Fa-CI plots were generated and synergy was evaluated. Drug synergy was statistically defined by CI values less than 1, antagonism by CI>1 and additive effect by CI equal to 1.
as §1
(§2) The HP-D300 digital dispenser (Tecan) was used to dispense compounds in a combinatorial matrix. […] Cell viability was measured via ATP content using CellTiter-Glo® (Promega).
(§3) Viability was determined using CellTiter-Glo® (Promega).
(§4) Proliferation studies were performed using MOLM-13, MV4-11 and SKM-1 cell lines in vitro to evaluate the cancer cell killing effect of a combination of two agents together on cell growth. Initial proliferation studies were performed to determine the IC50 values of a given compound in each cell line. The cell counts were measured by ATP quantitation using the Promega Cell Titer Glo kit and luminescence values correspond to the amount of ATP in a given well.
These studies were performed to evaluate both the combinatorial effect of compounds on cell killing and the durability of the effect by washing out one of the agents.
Compounds evaluated for synergy in the co-treatment phase were tested in a range which was bracketed around the IC50's. The compounds were plated to a 96 well plate in a matrix format which includes increasing concentrations of each drug in the combination in a constant ratio, in addition to the effect of each compound alone in the study.

[2] = test system: SKM-1 (non-MLL-rearranged AML); assay: as above; assay type: cell-based, human; conditions: for Effect of Compound A2 on the antiproliferative activity of the second agent: SKM-1, non-MLL-rearranged, Example 5
Experimental: (§5) Graphs representing values of combination index (CI) versus Fractional effect (Fa) known as Fa-CI plots were generated and synergy was evaluated.
as §5, §2, §3
MV4-11 cells were maintained in IMDM supplemented with 10% fetal bovine serum. MOLM-13 and SKM-1 cells were maintained in Roswell Park Memorial Institute medium (RPMI) supplemented with 10% fetal bovine serum. They were cultured in flasks or plates in a humidified 5% CO2 atmosphere.
as §4
Compounds evaluated for synergy in the co-treatment phase were tested in a range which was bracketed around the IC50's. The compounds were plated to a 96 well plate in a matrix format which includes increasing concentrations of each drug in the combination in a constant ratio, in addition to the effect of each compound alone in the study. Cells were seeded and grown in the log-linear phase for 3 or 7 days in the cotreatment phase. Maximum and minimum inhibition (DMSO alone) controls were used in each plate to calculate fraction affected (Fa) of a test well. DMSO concentration was kept at 0.1% v/v. The drug combination analysis was performed utilizing the Chou-Talalay method. Synergy was determined using the software package Calcusyn by Biosoft. The combination index (CI) is the term used to describe the level of synergy or antagonism in a given test system. A combination index less than one indicates synergy, and a CI greater than one indicates antagonism.
The drug combination analysis was performed using the Chou-Talalay method. Graphs representing values of combination index (CI) versus Fractional effect (Fa) known as Fa-CI plots were generated and synergy was evaluated.

MOLM-13 cells = assay: EPZ-5676 300 nM 7-day pre-treatment, then second compound 72 hours, ATPLite, IC50 shift (Example 6); assay type: cell-based, human; conditions: 300 nM EPZ-5676 or DMSO 7-day pre-treatment, then 2nd compound 72 hours, Synergy = IC50 of 2nd compound decreased by 2-fold or more vs DMSO control
Experimental: (§6) Cells were then equilibrated in incubators for 24 hours before treatment with a second compound. Treated assay plates were incubated with a second compound for 72 hours. After this time, plates were developed for endpoint analysis using ATPLite to measure ATP content, which is used as an indicator of cell viability.
(§7) “N/D” means that IC50 of the second compound could not be determined for both conditions.

SKM-1 cells = assay: as above; assay type: cell-based, human; conditions: SKM-1 cells; 300 nM EPZ-5676 or DMSO 7-day pre-treatment, then 2nd compound 72 hours, ATPLite; Synergy = IC50 of 2nd compound decreased by 2-fold or more vs DMSO control
Experimental: as §6, §7

MOLM-13 (MLL-AF9) [3] = assay: EPZ-5676 7-day pre-treatment, then second compound 72 hours, growth inhibition GI100 shift; primary screen and retest (Example 7); assay type: cell-based, human; conditions: second compound 72 hours
Experimental: as §6
(§8) Cells were then treated with a second compound for 72 hours. After this time, plates were developed for endpoint analysis using Cell Titer Glo to measure ATP content, which is used as an indicator of cell viability.
(§9) “N/D” means the GI100 of the second compound could not be determined for both conditions and “-” means not tested.
(§10) Growth Inhibition (GI) as a measure of cell viability: The cell viability of vehicle was measured at the time of dosing the second agent (T0) and after seventy-two hours (T72). […] A GI 200% represents complete death of all cells in the culture well. Compounds reaching an activity plateau of GI 200% are considered cytotoxic. GI is calculated by applying the following test and equation: […]
(§11) where T is the signal measure for a test article, V is the vehicle-treated control measure, and V0 is the vehicle control measure at time zero.

SKM-1 (non-MLLr) = assay: as above; assay type: cell-based, human; conditions: 300 nM EPZ-5676 7-day pre-treatment
Experimental: as §6, §8, §9, §10, §11

OCI-AML-4 (MLL-ENL) = assay: as above; assay type: cell-based; conditions: 300 nM EPZ-5676 7-day pre-treatment, second compound 72 hours
Experimental: as §6, §8, §9, §10, §11

EOL-1 (MLL-PTD) = assay: Combination proliferation study with Compound A2; assay type: cell-based, human; conditions: Table 3, Example 3
Experimental: as §2, §3

KOPM-88 (MLL-PTD) = assay: Combination proliferation study with Compound A2; assay type: cell-based, human; conditions: Table 3, Example 3
Experimental: as §2, §3

[4] = 7 Day Cotreatment Model, Table 4

Compound: C[C@]12C=CC(=O)C=C1CC[C@@H]1[C@@H]2[C@@H](O)C[C@@]2(C)[C@H]1CC[C@]2(O)C(=O)CO [Prednisolone]
- Combination with Compound A2, MOLM-13 (MLL-AF9) (MOLM-13 (MLL-AF9) [1]; [4]): Antagonistic (antagonism by CI>1)
- Combination with Compound A2, MOLM-13 (MLL-AF9) (MOLM-13 (MLL-AF9) [1]; 7 Day Cotreatment Model, Table 4, listed as prednisolone): antagonism
- Combination with Compound A2, MV4-11 (MLL-AF4) (MV4-11 (MLL-AF4)): Antagonistic (antagonism by CI>1)
- Combination with Compound A2, MV4-11 (MLL-AF4) (MV4-11 (MLL-AF4); listed as prednisolone): antagonism
- Effect of Compound A2 on the antiproliferative activity of the second agent [2]: enhanced antiproliferative activity

Compound: COc1cc2c(cc1-c1c(C)noc1C)ncc1[nH]c(=O)n([C@H](C)c3ccccn3)c12 [IBET-151]
- Combination with Compound A2, MOLM-13 (MLL-AF9) (MOLM-13 (MLL-AF9) [1]; [4]): Synergy (Drug synergy was statistically defined by CI values less than 1)
- Combination with Compound A2, MOLM-13 (MLL-AF9) (MOLM-13 (MLL-AF9) [1]; Table 2, Example 3): Synergy (Drug synergy was statistically defined by CI values less than 1)
- Combination of Compound A2 and anti-cancer agent, MV4-11 (MV4-11 (MLL-AF4)): Synergy (A combination index less than one indicates synergy)
- Combination with Compound A2, MV4-111 MLL-AF4 (MV4-11 (MLL-AF4)): Synergy (Drug synergy was statistically defined by CI values less than 1)
- Combination with Compound A2, SKM-1 AML: Non-rearranged ([2]; Table 2, Example 3): IC50 not achieved

Compound: O=C(Nc1ccc2[nH]nc(-c3ccncc3)c2c1)[C@@H]1CCN(CC(=O)N2CCN(c3ccc(-c4ncccn4)cc3)CC2)C1 [SCH772984]
- MOLM-13 (summary of combination study: EPZ-5676 + 2nd compound) (MOLM-13 cells): Synergy (considered synergistic if the IC50 value of the second compound decreased by 2-fold or more when EPZ-5676 was added as compared to the DMSO control)
- SKM-1 (summary of combination study: EPZ-5676 + 2nd compound) (SKM-1 cells): Synergy (considered synergistic if the IC50 value of the second compound decreased by 2-fold or more when EPZ-5676 was added as compared to the DMSO control)
- Combination with EPZ-5676, MOLM-13 (MLL-AF9) Retest (MOLM-13 (MLL-AF9) [3]; 150 nM EPZ-5676 7-day pre-treatment, Cell Titer Glo): Synergy (considered synergistic if the GI100 (Growth inhibition 100) value of the second compound decreased by 2-fold or more when EPZ-5676 was added as compared to the DMSO control)
- Combination with EPZ-5676, MOLM-13 (MLL-AF9) Primary screen (MOLM-13 (MLL-AF9) [3]; 300 nM EPZ-5676 7-day pre-treatment, ATPLite): Synergy (considered synergistic if the GI100 (Growth inhibition 100) value of the second compound decreased by 2-fold or more when EPZ-5676 was added as compared to the DMSO control)
- Combination with EPZ-5676, SKM-1 (non-MLLr) Primary screen (SKM-1 (non-MLLr); ATPLite): Synergy (considered synergistic if the GI100 (Growth inhibition 100) value of the second compound decreased by 2-fold or more when EPZ-5676 was added as compared to the DMSO control)
- Combination with EPZ-5676, SKM-1 (non-MLLr) Retest (SKM-1 (non-MLLr); Cell Titer Glo): Synergy (considered synergistic if the GI100 (Growth inhibition 100) value of the second compound decreased by 2-fold or more when EPZ-5676 was added as compared to the DMSO control)
- Combination with EPZ-5676, OCI-AML-4 (MLL-ENL) Primary screen (OCI-AML-4 (MLL-ENL); ATPLite): Synergy (considered synergistic if the GI100 (Growth inhibition 100) value of the second compound decreased by 2-fold or more when EPZ-5676 was added as compared to the DMSO control)
- Combination with EPZ-5676, OCI-AML-4 (MLL-ENL) Retest (OCI-AML-4 (MLL-ENL); Cell Titer Glo): Synergy (considered synergistic if the GI100 (Growth inhibition 100) value of the second compound decreased by 2-fold or more when EPZ-5676 was added as compared to the DMSO control)

Compound: Nc1ncn([C@@H]2O[C@H](CO)[C@@H](O)[C@H]2O)c(=O)n1 [Azacitidine]
- Combination with Compound A2, MOLM-13 (MLL-AF9) (MOLM-13 (MLL-AF9) [1]; [4]): Strong Synergy
- Combination with Compound A2, MOLM-13 (MLL-AF9) (MOLM-13 (MLL-AF9) [1]; 7 Day Cotreatment Model, Table 4, listed as azacytidine): synergistically induce an anti-proliferative effect; also recorded: synergistic anti-proliferative activity
- Combination with Compound A2, MOLM-13 (MLL-AF9) (MOLM-13 (MLL-AF9) [1]; Table 2, Example 3): Synergy (Drug synergy was statistically defined by CI values less than 1)
- Combination of Compound A2 and anti-cancer agent, MV4-11 (MV4-11 (MLL-AF4)): Synergy (A combination index less than one indicates synergy)
- Combination with Compound A2, MV4-11 (MLL-AF4) (MV4-11 (MLL-AF4)): Synergy (Drug synergy was statistically defined by CI values less than 1)
- Combination with Compound A2, MV4-11 (MLL-AF4) (MV4-11 (MLL-AF4); listed as azacytidine): synergistically induce an anti-proliferative effect; also recorded: synergistic anti-proliferative activity
- Combination with Compound A2, MV4-111 MLL-AF4 (MV4-11 (MLL-AF4)): Synergy (Drug synergy was statistically defined by CI values less than 1)
- Effect of Compound A2 on the antiproliferative activity of the second agent ([2]; listed as Azacytidine): not potentiated
- Effect of Compound A2 on the antiproliferative activity of the second agent ([2]; listed as azacytidine): no impact
- Combination with Compound A2, EOL-1 (MLL-PTD) (EOL-1 (MLL-PTD)): Synergy (Drug synergy was statistically defined by CI values less than 1)
- Combination with Compound A2, KOPM-88 (MLL-PTD) (KOPM-88 (MLL-PTD)): Synergy (Drug synergy was statistically defined by CI values less than 1)
